Test results from PubChem BioAssay (NCI).
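Where inhibition never reached the appropriate level, the endpoint shown equals the highest concentration tested. Otherwise, values were interpolated linearly from a five-concentration, 48-hour dose response in 96-well plates. TGI is the concentration that stops growth completely.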

How the values were obtained:
Experiment in all cases: NCI tumour cell line growth inhibition, 48 h
[1] = tested on: UO-31 renal
[2] = tested on: UACC-257 melanoma
[3] = tested on: SK-OV-3 ovarian
[4] = tested on: SF-295 CNS
[5] = tested on: LXFL 529 NSCLC
[6] = tested on: HL-60(TB) leukemia
[7] = tested on: A549 NSCLC
[8] = tested on: SNB-75 CNS
[9] = tested on: U251 CNS
[10] = tested on: MOLT-4 leukemia
[11] = tested on: SF-268 CNS
[12] = tested on: SNB-78 CNS
[13] = tested on: ACHN renal
[14] = tested on: RPMI-8226 leukemia
[15] = tested on: OVCAR-3 ovarian
[16] = tested on: COLO 205 colon
[17] = tested on: NCI-H226 lung
[18] = tested on: HT29 colon
[19] = tested on: XF 498 CNS
[20] = tested on: HCT-116 colon
[21] = tested on: SNB-19 CNS
[22] = tested on: HOP-92 NSCLC
[23] = tested on: SK-MEL-28 melanoma
[24] = tested on: DMS 114 small cell lung
[25] = tested on: DMS 273 small cell lung
[26] = tested on: M14 melanoma
[27] = tested on: NCI-H23 lung
[28] = tested on: SN12C renal
[29] = tested on: EKVX NSCLC
[30] = tested on: K-562 leukemia
[31] = tested on: CCRF-CEM leukemia
[32] = tested on: OVCAR-8 ovarian
[33] = tested on: HOP-18 NSCLC
[34] = tested on: 786-0 renal
[35] = tested on: OVCAR-4 ovarian
[36] = tested on: MALME-3M melanoma
[37] = tested on: IGROV1 ovarian
[38] = tested on: HCC-2998 colon
[39] = tested on: KM12 colon
[40] = tested on: SF-539 CNS
[41] = tested on: NCI-H460 lung
[42] = tested on: UACC-62 melanoma
[43] = tested on: NCI-H522 lung
[44] = tested on: TK-10 renal
[45] = tested on: M19-MEL melanoma
[46] = tested on: OVCAR-5 ovarian
[47] = tested on: LOX IMVI melanoma
[48] = tested on: SK-MEL-2 melanoma
[49] = tested on: KM20L2 colon
[50] = tested on: HCT-15 colon
[51] = tested on: SW-620 colon
[52] = tested on: SK-MEL-5 melanoma
[53] = tested on: RXF 393 renal
[54] = tested on: DLD-1 colon

## c1ccc(-c2nc3ccccc3nc2SCc2cccnc2)cc1
[1]
  TGI: > 100 µM
[2]
  TGI: > 100 µM
[3]
  TGI: > 100 µM
[4]
  TGI: > 100 µM
[5]
  TGI: > 100 µM
[6]
  TGI: > 100 µM
[7]
  TGI: > 100 µM
[8]
  TGI: > 100 µM
[9]
  TGI: > 100 µM
[10]
  TGI: > 100 µM
[11]
  TGI: > 100 µM
[12]
  TGI: > 100 µM
[13]
  TGI: > 100 µM
[14]
  TGI: > 100 µM
[15]
  TGI: > 100 µM
[16]
  TGI: > 100 µM
[17]
  TGI: > 100 µM
[18]
  TGI: > 100 µM
[19]
  TGI: > 100 µM
[20]
  TGI: > 100 µM
[21]
  TGI: > 100 µM
[22]
  TGI: > 100 µM
[23]
  TGI: > 100 µM
[24]
  TGI: > 100 µM
[25]
  TGI: > 100 µM
[26]
  TGI: > 100 µM
[27]
  TGI: > 100 µM
[28]
  TGI: > 100 µM
[29]
  TGI: > 100 µM
[30]
  TGI: > 100 µM
[31]
  TGI: > 100 µM
[32]
  TGI: > 100 µM
[33]
  TGI: > 100 µM
[34]
  TGI: > 100 µM
[35]
  TGI: > 100 µM
[36]
  TGI: > 100 µM

## COc1c(C)cc2c(C(C)C)c(O)c(O)c(C=O)c2c1O
[37]
  TGI: > 100 µM
[1]
  TGI: > 100 µM
[2]
  TGI: 59.4 µM
[3]
  TGI: > 100 µM
[38]
  TGI: > 100 µM
[4]
  TGI: 86 µM
[5]
  TGI: > 100 µM
[39]
  TGI: 56.1 µM
[6]
  TGI: 58.3 µM
[7]
  TGI: > 100 µM
[40]
  TGI: 37.6 µM
[41]
  TGI: > 100 µM
[42]
  TGI: 47.5 µM
[8]
  TGI: 90.2 µM
[9]
  TGI: 57.9 µM
[10]
  TGI: > 100 µM
[11]
  TGI: > 100 µM
[12]
  TGI: > 100 µM
[43]
  TGI: 60.4 µM
[13]
  TGI: 93 µM
[14]
  TGI: > 100 µM
[44]
  TGI: > 100 µM
[15]
  TGI: 49.5 µM
[16]
  TGI: 36.3 µM
[17]
  TGI: 57.2 µM
[45]
  TGI: 81.8 µM
[18]
  TGI: 47.1 µM
[19]
  TGI: > 100 µM
[20]
  TGI: 52 µM
[21]
  TGI: > 100 µM
[22]
  TGI: > 100 µM
[46]
  TGI: 86 µM
[23]
  TGI: 75.1 µM
[47]
  TGI: 68.9 µM
[24]
  TGI: 37.9 µM
[25]
  TGI: 59.1 µM
[26]
  TGI: 64.4 µM
[48]
  TGI: 37.1 µM
[27]
  TGI: 47.8 µM
[49]
  TGI: 88.1 µM
[50]
  TGI: > 100 µM
[28]
  TGI: 75.8 µM
[29]
  TGI: 95.1 µM
[30]
  TGI: 45.4 µM
[31]
  TGI: > 100 µM
[51]
  TGI: > 100 µM
[32]
  TGI: 83.8 µM
[33]
  TGI: 71.7 µM
[34]
  TGI: > 100 µM
[52]
  TGI: 33.1 µM
[53]
  TGI: 55.2 µM
[35]
  TGI: 63.9 µM
[54]
  TGI: > 100 µM
[36]
  TGI: 38.7 µM
